# Reference: ChEMBL document CHEMBL1128255, “Synthesis of 11 beta-[18F]fluoro-5 alpha-dihydrotestosterone and 11 beta-[18F]fluoro-19-nor-5 alpha-dihydrotestosterone: preparation via halofluorination-reduction, receptor binding, and tissue distribution” (J Med Chem, 1995)
# Legend:
# [1] = %ID/g is percent injected dose per gram of tissue and in vivo distribution of compound obtained after 2 hour (blocked) in prostate (v)/blood; assay type: ADME, organism-based; conditions: other tissue
# [2] = %ID/g is percent injected dose per gram of tissue and in vivo distribution of compound obtained after 2 hour in blood; assay type: ADME, organism-based
# [3] = biological target: T1, Androgen receptor (Rattus norvegicus) (UniProt P15207)
# T1 sequence (whole entry): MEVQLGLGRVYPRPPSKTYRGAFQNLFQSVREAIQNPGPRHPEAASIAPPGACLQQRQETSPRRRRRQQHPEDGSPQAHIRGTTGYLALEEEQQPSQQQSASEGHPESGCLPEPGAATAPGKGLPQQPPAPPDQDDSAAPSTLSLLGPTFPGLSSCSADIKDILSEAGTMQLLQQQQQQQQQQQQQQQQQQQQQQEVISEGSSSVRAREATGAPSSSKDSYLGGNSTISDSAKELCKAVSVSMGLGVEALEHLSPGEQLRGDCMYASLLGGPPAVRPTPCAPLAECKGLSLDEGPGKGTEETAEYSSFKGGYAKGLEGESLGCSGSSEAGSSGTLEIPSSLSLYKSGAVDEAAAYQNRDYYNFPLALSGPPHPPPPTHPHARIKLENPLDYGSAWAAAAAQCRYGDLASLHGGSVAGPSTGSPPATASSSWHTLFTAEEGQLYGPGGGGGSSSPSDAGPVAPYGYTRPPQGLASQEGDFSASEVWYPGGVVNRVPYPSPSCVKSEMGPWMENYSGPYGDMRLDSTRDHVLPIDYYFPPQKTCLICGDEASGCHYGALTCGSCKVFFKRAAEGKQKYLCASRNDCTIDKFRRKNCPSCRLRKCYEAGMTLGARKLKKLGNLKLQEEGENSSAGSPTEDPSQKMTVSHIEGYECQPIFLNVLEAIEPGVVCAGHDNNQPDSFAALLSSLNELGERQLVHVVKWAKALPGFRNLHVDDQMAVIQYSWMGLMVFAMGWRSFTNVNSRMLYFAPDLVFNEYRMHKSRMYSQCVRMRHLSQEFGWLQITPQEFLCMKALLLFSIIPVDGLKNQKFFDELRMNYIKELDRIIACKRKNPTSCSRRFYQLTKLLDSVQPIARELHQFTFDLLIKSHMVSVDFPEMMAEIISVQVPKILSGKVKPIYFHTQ
# Description: Binding selectivity index (BSI) as ratio of RBA for androgen receptor to non-specific binding of R1881
# [4] = %ID/g is percent injected dose per gram of tissue and in vivo distribution of compound obtained after 1 hour in liver; assay type: ADME, organism-based
# [5] = %ID/g is percent injected dose per gram of tissue and in vivo distribution of compound obtained after 1 hour in prostate (v)/blood; assay type: ADME, organism-based
# [6] = %ID/g is percent injected dose per gram of tissue and in vivo distribution of compound obtained after 2 hour (low) in bladder; assay type: ADME, organism-based, Urinary bladder
# [7] = %ID/g is percent injected dose per gram of tissue and in vivo distribution of compound obtained after 1 hour in muscle; assay type: ADME, organism-based
# [8] = %ID/g is percent injected dose per gram of tissue and in vivo distribution of compound obtained after 2 hour (low) in spleen; assay type: ADME, organism-based
# [9] = %ID/g is percent injected dose per gram of tissue and in vivo distribution of compound obtained after 2 hour in lung; assay type: ADME, organism-based
# [10] = %ID/g is percent injected dose per gram of tissue and in vivo distribution of compound obtained after 2 hour (low) in blood; assay type: ADME, organism-based
# [11] = %ID/g is percent injected dose per gram of tissue and in vivo distribution of compound obtained after 2 hour (low) in fat; assay type: ADME, organism-based, Adipose tissue
# [12] = %ID/g is percent injected dose per gram of tissue and in vivo distribution of compound obtained after 2 hour in prostate (v)/blood; assay type: ADME, organism-based
# [13] = %ID/g is percent injected dose per gram of tissue and in vivo distribution of compound obtained after 1 hour in lung; assay type: ADME, organism-based
# [14] = %ID/g is percent injected dose per gram of tissue and in vivo distribution of compound obtained after 2 hour (blocked) in prostate (v)/muscle; assay type: ADME, organism-based
# [15] = %ID/g is percent injected dose per gram of tissue and in vivo distribution of compound obtained after 2 hour (low) in prostate (d)/biood; assay type: ADME, organism-based, Prostate gland
# [16] = %ID/g is percent injected dose per gram of tissue and in vivo distribution of compound obtained after 4 hour in fat; assay type: ADME, organism-based, Adipose tissue
# [17] = %ID/g is percent injected dose per gram of tissue and in vivo distribution of compound obtained after 2 hour (low) in prostate (v)/muscle; assay type: ADME, organism-based
# [18] = %ID/g is percent injected dose per gram of tissue and in vivo distribution of compound obtained after 2 hour (blocked) in spleen; assay type: ADME, organism-based
# [19] = %ID/g is percent injected dose per gram of tissue and in vivo distribution of compound obtained after 2 hour (low) in kidney; assay type: ADME, organism-based
# [20] = %ID/g is percent injected dose per gram of tissue and in vivo distribution of compound obtained after 1 hour in bladder; assay type: ADME, organism-based, Urinary bladder
# [21] = %ID/g is percent injected dose per gram of tissue and in vivo distribution of compound obtained after 2 hour (blocked) in fat; assay type: ADME, organism-based, Adipose tissue
# physchem = conditions: octanol/water
# Description: Partition coefficient (logP)
# [22] = %ID/g is percent injected dose per gram of tissue and in vivo distribution of compound obtained after 2 hour in prostate (d)/biood; assay type: ADME, organism-based, Prostate gland
# [23] = %ID/g is percent injected dose per gram of tissue and in vivo distribution of compound obtained after 2 hour in bladder; assay type: ADME, organism-based, Urinary bladder
# [24] = %ID/g is percent injected dose per gram of tissue and in vivo distribution of compound obtained after 2 hour (blocked)i n prostate (d)/biood; assay type: ADME, organism-based, Prostate gland
# [25] = %ID/g is percent injected dose per gram of tissue and in vivo distribution of compound obtained after 2 hour (blocked) in muscle; assay type: ADME, organism-based
# [26] = %ID/g is percent injected dose per gram of tissue and in vivo distribution of compound obtained after 2 hour in fat; assay type: ADME, organism-based, Adipose tissue
# [27] = %ID/g is percent injected dose per gram of tissue and in vivo distribution of compound obtained after 1 hour in prostate (v); assay type: ADME, organism-based, Prostate gland
Structure (SMILES),ID/g [1] [%],ID/g [2] [%],BSI [3],ID/g [4] [%],ID/g [5] [%],ID/g [6] [%],ID/g [7] [%],ID/g [8] [%],ID/g [9] [%],ID/g [10] [%],ID/g [11] [%],ID/g [12] [%],ID/g [13] [%],ID/g [14] [%],ID/g [15] [%],ID/g [16] [%],ID/g [17] [%],ID/g [18] [%],ID/g [19] [%],ID/g [20] [%],other results
C[C@]12CCC(=O)C[C@@H]1CC[C@@H]1[C@@H]2[C@@H](F)C[C@]2(C)[C@@H](O)CC[C@@H]12,1.357,0.038,42.8,1.16,5.41,0.263,0.059,0.017,0.069,0.022,0.02,10.058,0.111,2.895,11.358,0.012,8.86,0.026,0.145,1.245,ID/g [21]: 0.026%; logP (physchem): 3.5; ID/g [22]: 10.642%; ID/g [23]: 0.165%; ID/g [24]: 1.465%; ID/g [25]: 0.023%; ID/g [26]: 0.024%; ID/g [27]: 0.486%
C[C@]12C[C@H](F)[C@H]3[C@@H](CC[C@H]4CC(=O)CC[C@@H]43)[C@@H]1CC[C@@H]2O,0.88,0.046,91.8,1.812,3.054,0.686,0.064,0.049,0.058,0.047,0.041,2.605,0.115,1.763,3.126,0.022,2.993,0.032,0.251,3.331,ID/g [21]: 0.036%; logP (physchem): 3.1; ID/g [22]: 2.95%; ID/g [23]: 4.549%; ID/g [24]: 0.815%; ID/g [25]: 0.03%; ID/g [26]: 0.041%; ID/g [27]: 0.284%
